# The source made the active and inactive calls.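 Rule for the calls: active = maximal percent inhibition of the deubiquitinase OTUD3 of at least 30% across the tested doses; inactive = the rest.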
# Target: OTU domain-containing protein 3 (Homo sapiens) (UniProt Q5T2D3)
# Assay: Validation of screening hits, potency titration, in vitro enzymatic, OTU domain-containing protein 3 DUB inhibitors (AID 1645868)
# Settings: purified OTUD3, ubiquitin-rhodamine cleavage fluorescence, 2 h
# Sequence of OTU domain-containing protein 3 (Homo sapiens) (Q5T2D3 whole entry, looked up, the tested form may be a part): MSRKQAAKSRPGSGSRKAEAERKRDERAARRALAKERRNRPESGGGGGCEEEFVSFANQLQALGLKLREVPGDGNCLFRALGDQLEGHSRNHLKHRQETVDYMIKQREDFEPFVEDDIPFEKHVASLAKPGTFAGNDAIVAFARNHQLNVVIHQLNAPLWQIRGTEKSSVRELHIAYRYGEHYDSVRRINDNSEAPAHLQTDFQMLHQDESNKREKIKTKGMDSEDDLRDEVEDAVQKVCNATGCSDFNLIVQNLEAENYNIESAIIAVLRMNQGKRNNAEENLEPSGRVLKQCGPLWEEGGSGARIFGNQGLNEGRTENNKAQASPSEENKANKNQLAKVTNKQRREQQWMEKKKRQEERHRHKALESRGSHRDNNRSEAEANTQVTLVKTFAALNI
row,SMILES,IC50
1,Cc1nc(SCC#N)c2oc3ccccc3c2n1,> 50 µM (inactive)
2,O=c1ccc(-c2noc(Cc3c(F)cccc3Cl)n2)c[nH]1,> 50 µM (inactive)
3,Cc1cccc(C(=O)Nc2ccc3c(c2)nc(CSc2nccc(C)n2)n3C)c1,> 50 µM (inactive)
4,Cc1cc(NC(=O)Cn2c(=O)n(CCCCC(=O)NCc3ccco3)c(=O)c3ccccc32)ccc1Br,3.48 µM
5,O=C(COC(=O)c1cc(Cl)ccc1O)Nc1ccc2c(c1)OCCO2,37.1 µM
6,CCN1C(SCc2ccccc2F)=NS(=O)(=O)c2ccccc21,> 50 µM (inactive)
7,O=c1ncn(Cc2ccc3c(c2)OCO3)cc1-c1ncc(C(F)(F)F)cc1Cl,> 50 µM (inactive)
8,N#C/C(=C\c1ccc(-c2cc(Cl)ccc2Cl)o1)c1nnc2n1CCCCC2,> 50 µM (inactive)
9,CC12c3ccc4c(c3C(=O)c3occ(c31)C(=O)CC2O)CCC4=O (centres undefined),> 50 µM (inactive)
10,CC(=O)N1CCc2cc(CNC(=O)Nc3cc(C)ccc3C)ccc21,> 50 µM (inactive)
11,Nc1ccccc1SCc1noc(-c2cccs2)n1,> 50 µM (inactive)
12,Cc1cc(C)c2cc(C(=O)NC3CCN(Cc4ccccc4)CC3)[nH]c2c1,32.1 µM
13,Cc1ccc(C)c(Cn2nnc3c(=O)[nH]c(C4CCN(S(=O)(=O)c5ccc(S(=O)(=O)NC6CC6)cc5)CC4)nc32)c1,35.1 µM
14,CC(OC(=O)c1ccc2c(c1)OCCO2)C(=O)NCC1CCCCC1 (centres undefined),34.2 µM
15,Cc1ccc2cccc(OCc3nnc(SCC(=O)c4ccc(Cl)cc4)n3C)c2n1,25.8 µM
16,CCOc1cc(N2CCOCC2)c(OCC)cc1NC(=O)c1cc(-c2ccncc2)nc2ccccc12,> 50 µM (inactive)
17,O=C(Nc1ccc2c(c1)OCCO2)c1cc(CN2CCOCC2)on1,> 50 µM (inactive)
18,Cc1sc(NC(=O)CNc2ccccc2)nc1-c1ccc2c(c1)CCN2C(=O)C(C)C,> 50 µM (inactive)
19,O=C(Cc1cccc2ccccc12)Nc1nc2ccc(F)cc2s1,> 50 µM (inactive)
20,Cc1cnc2nc3c(cc2c1)CN(CCc1ccc(Cl)cc1)CC3,> 50 µM (inactive)
21,O=C(NCc1ccc2c(c1)OCO2)c1nc(-c2ccccc2)n(-c2ccccc2)n1,> 50 µM (inactive)
22,Cc1ccc(C(=O)Nc2ccc(S(=O)(=O)N3CCCC3)cc2)cc1Br,> 50 µM (inactive)
23,Cn1c(=O)sc2cc(NC(=O)c3ccc(Br)cc3)ccc21,15.2 µM
24,O=c1c2ccccc2c(-c2nc(-c3ccncc3)no2)cn1-c1ccccc1,> 5 µM (inactive)

row,SMILES,IC50
1,O=C(CN(Cc1ccc(Cl)cc1)S(=O)(=O)c1ccc(Cl)cc1)N1CCOCC1,> 50 µM (inactive)
2,COc1ccc(NC(=O)c2ccnc(Nc3ccc(OC)cc3)c2)cc1,> 50 µM (inactive)
3,N#Cc1c(SCCO)nc(N2CCCC2)c2c1CCCC2,> 50 µM (inactive)
4,Cc1c(-c2ccccc2)oc2c(C(=O)OCC(=O)Nc3ccccc3F)cccc2c1=O,> 50 µM (inactive)
5,O=C(O)C1CCN(Cc2c(-c3ccco3)nc3ccc(Cl)cn23)CC1,> 50 µM (inactive)
6,CC(=O)c1sc(NC(=O)c2ccccc2-c2ccc(C(F)(F)F)cc2)nc1C,41.7 µM
7,Cn1ncc2c(=O)n(Cc3cccc(Cl)c3)cnc21,> 50 µM (inactive)
8,Cc1ccccc1NC(=O)c1cc(S(=O)(=O)N2CCCCCC2)ccc1Cl,29.7 µM
9,Cn1c(CN2CCCCCC2)nc2cc(NC(=O)c3ccccc3)ccc21,> 50 µM (inactive)
10,O=C1NC(=O)/C(=C/c2ccc(OC(=O)c3ccc(Cl)cc3Cl)cc2)N1,11 µM
11,Cc1ccc(C(=O)c2cn(CC(=O)Nc3ccccc3)c3ccc(C)cc3c2=O)cc1,21.1 µM
12,COc1ccc(NC(=O)C2CCN(c3cncnc3N(C)C)CC2)cc1OC,> 50 µM (inactive)
13,CCOc1ccccc1NC(=O)COc1cc(OC)ccc1C(=O)c1ccccc1,> 5 µM (inactive)
14,COc1cc(C)c(NC(=O)c2cc(-c3ccccc3)c(N3CCOCC3)s2)cc1OC,> 50 µM (inactive)
15,COc1ccccc1NS(=O)(=O)c1cccc(NC(=O)CCc2nc3ccccc3s2)c1,> 50 µM (inactive)
16,COc1ccc(C2SCC(=O)Nc3c2c(=O)[nH]n3C2CCCCC2)cc1 (centres undefined),23.3 µM
17,COc1ccc(OC)c(-c2c(C#N)c(C)nc3c2N2CCC3CC2)c1,25 µM
18,Cc1cc(C(F)(F)F)n2nc(C3CCN(C(=O)c4cnn(C)c4C)C3)cc2n1 (centres undefined),> 50 µM (inactive)
19,COc1ccc(NC(=O)Cn2cc(C(=O)c3ccc(C)cc3)c(=O)c3ccccc32)cc1,11.4 µM
20,COC(=O)CC1CC23OC2(C(=O)c2c(O)cccc2C3=O)C(C)O1 (centres undefined),> 50 µM (inactive)
21,COc1ccc(S(=O)(=O)N(C)Cc2cccs2)cc1OC,> 50 µM (inactive)
22,C[C@@H](C(=O)NCc1ccc(F)cc1)N1C(=O)N2CCc3c([nH]c4ccccc34)[C@@]2(C)C1=O,24.1 µM
23,CC[C@H](C)[C@H](NC(=O)[C@H]([C@@H](C)CC)N(C)C(C)=O)C(=O)N[C@H](C(=O)N[C@@H](CC(C)C)C(=O)C1(C)CO1)[C@@H](C)O (some centres undefined),> 50 µM (inactive)
24,O=C(CNC(=O)OCc1ccccc1)Nc1ccc(Br)cc1C(=O)c1ccccc1Cl,13.4 µM

row,SMILES,IC50
1,Cc1cc(NC(=O)c2cc(-c3cccnc3)n[nH]2)ccc1Br,12.2 µM
2,O=c1cc(CNc2ccc(Br)cc2)nc2nc(-c3ccccc3)[nH]n12,> 50 µM (inactive)
3,COc1ccc(Cl)cc1N1C(=O)[C@H]2[C@@H](C1=O)[C@]1(C(=O)Nc3c(C)cc(C)cc31)N1CCC[C@@H]21,> 50 µM (inactive)
4,CC1=C(C(=O)Nc2ccccc2C)C(c2ccc(OCc3ccccc3F)cc2)n2ncnc2N1 (centres undefined),24 µM
5,COc1ccc(CNC(=O)CCc2nc3sc4c(c3c(=O)[nH]2)CCCCC4)cc1,> 50 µM (inactive)
6,CCn1c(COc2cccc(C(F)(F)F)c2)nnc1SCc1ccc(Cl)cc1,28.8 µM
7,O=C(CSc1nnc(-c2ccc3c(c2)OCO3)n1-c1ccccc1)OCC(=O)c1ccccc1,> 50 µM (inactive)
8,Cc1c2c(nc3ccccc13)-c1ccccc1CC2,> 50 µM (inactive)
9,COc1ccc(CNC(=O)Nc2cccc3ccccc23)cc1,13.8 µM
10,O=S(=O)(Nc1ccc2oc(-c3ccncc3)nc2c1)c1ccccc1,> 50 µM (inactive)
11,COc1ccc(Nc2ncc(C(=O)Nc3ccc(Oc4ccccc4)cc3)c3ccccc23)cc1,> 50 µM (inactive)
12,CCOC(=O)c1cc2c(ccn2C)n1CC(=O)N1CCc2ccccc2C1,> 50 µM (inactive)
13,O=C(Nc1cccn(Cc2c(Cl)cccc2Cl)c1=O)c1ccccc1[N+](=O)[O-],> 50 µM (inactive)
14,O=C(Cn1c(=O)n(CC(=O)NC2CCCC2)c(=O)c2ccccc21)Nc1cc(Cl)ccc1Cl,12.1 µM
15,COC(=O)c1c(C)[nH]c(C(=O)C(C)OC(=O)CCC2CCCC2)c1C (centres undefined),> 50 µM (inactive)
16,COc1cccc(NC(=O)C2Cc3ccccc3N2C(=O)c2ccccc2)c1 (centres undefined),20.1 µM
17,COc1ccccc1-c1nc(-c2nnn(Cc3ccc(C)cc3)c2C)no1,> 50 µM (inactive)
18,Cc1c(C)c2ccc(OCC(=O)NCc3ccncc3)c(C)c2oc1=O,> 50 µM (inactive)
19,COc1ccc(Cl)cc1NC(=O)Cn1c(=O)cc(C)c2c(C)nn(-c3ccccc3)c21,44.3 µM
20,COc1ccc(NC(=O)c2nnn(-c3ccccc3F)c2C)cc1OC,> 50 µM (inactive)
21,Cc1ccc2nc(CNc3ccc(F)cc3C)cc(=O)n2c1,> 50 µM (inactive)
22,CCC1OC(O)(C(C)C(O)C(C)C2OC(=O)/C(C)=C/C(C)=CC(C)C(O)C(C)C/C(C)=C/C=C/C2OC)CC(OC(=O)/C=C/C(=O)NC2=C(O)CCC2=O)C1C (centres undefined),> 50 µM (inactive)
23,Cc1ccc(NC(=O)c2ccn(COc3ccc(F)cc3)n2)nc1,> 50 µM (inactive)
24,Cn1ccc2c(cc(C(=O)NCCC3=CCCCC3)n2C)c1=O,> 50 µM (inactive)

row,SMILES,IC50
1,Cn1c(CCNC(=O)c2[nH]nc3c2CCc2ccccc2-3)nc2ccccc21,29.3 µM
2,COc1ccc(C(=O)Nc2ccc(S(=O)(=O)N3CCCCC3)cc2)cc1,> 50 µM (inactive)
3,CC(c1ccccc1)n1c(-c2ccc(F)cc2)nc2c(c(=O)c3ccccc3n2C)c1=O (centres undefined),4.65 µM
4,CC(C)OC(=O)c1cc2c(ccn2C)n1CC(=O)N1CCN(C(=O)c2ccco2)CC1,> 50 µM (inactive)
5,O=C(NCc1ccc(Cl)cc1)Nc1cccc2ccccc12,> 50 µM (inactive)
6,N#Cc1cccc(NC(=O)Cn2cccc(-c3nc(-c4ccccc4)no3)c2=O)c1,> 50 µM (inactive)
7,CCc1ccc2c(c1)[C@]1(C(=O)N2)[C@@H]2C(=O)N(c3ccc(Cl)cc3Cl)C(=O)[C@@H]2[C@@H]2CCCN21,> 50 µM (inactive)
8,COc1ccc(NC(=O)c2nnn(-c3ccccc3C)c2C)cc1OC,> 50 µM (inactive)
9,CN1C(=O)[C@]23CC4=CC=C[C@H](O)[C@H]4N2C(=O)[C@@]1(CO)SS3,> 50 µM (inactive)
10,Cc1nn(CC(=O)NCc2ccccc2F)c2ccccc12,> 50 µM (inactive)
11,COC(=O)c1cc2c(ccn2C)n1CC(=O)NC1CCCC1,> 50 µM (inactive)
12,O=C(Cn1c(=O)n(Cc2ccc(F)cc2)c(=O)c2sccc21)Nc1cccc(Cl)c1,23.1 µM
13,O=C(NCc1ccc(F)cc1)C1CCCN(c2cnc3nccnc3c2)C1 (centres undefined),> 50 µM (inactive)
14,Cc1ccc2[nH]c(=O)c(-c3nc4ccc(C)cn4c3NCc3ccc(F)cc3)cc2c1,3.37 µM
15,O=C(COc1nc2ccccc2nc1N1CCOCC1)Nc1cccc(S(=O)(=O)N2CCCCC2)c1,> 50 µM (inactive)
16,COc1ccc(NC(=O)C2CC(=O)Nc3cc(-c4ccccc4)nn32)cc1 (centres undefined),26.6 µM
17,Cc1ccc(NC(=O)c2sc3ncn(CC(=O)N4CCN(c5ccccn5)CC4)c(=O)c3c2C)c(Br)c1,37.9 µM
18,CC(C)(C)c1ccc(-c2nnc3n2-c2ccccc2SC3)cc1,> 50 µM (inactive)
19,C[C@H](NC(=O)Cc1ccccc1F)c1nc2cc(-c3ccccc3F)ncn2n1,> 50 µM (inactive)
20,O=C(OCCCN1C(=O)c2cccc3c(N4CCCCC4)ccc(c23)C1=O)c1ccccn1,> 50 µM (inactive)
21,Cc1cc(Cl)ccc1NC(=O)c1cc(-c2cccnc2)n[nH]1,> 50 µM (inactive)
22,CCOC(=O)Nc1ccc(N2CCn3c(nc4ccccc43)C2)cc1OC,> 50 µM (inactive)

# — PubChem BioAssay AID1645868 (Buhrlage Lab, Dana-Farber Cancer Institute and Novartis …, 2021)
